Results on 29 compounds are retold here after patent US20250346605A1, “NEW DERIVATIVES FOR TREATING TRPM3 MEDIATED DISORDERS” (Katholieke Universiteit Leuven, priority 2022, published 2025).

This test addresses T1, mouse TRPM3α2 (mTRPM3) ion channel (Mus musculus, UniProt J9SQF3).
T1 construct: expressed in transfected cells; host or cells: Flp-In HEK293
Put plainly: TRPM3 ion channel driven Ca2+ uptake (Fluo-4 AM assay), PS-stimulated overexpressing HEK293 cells. Type of test: cell-based. The following applies: flip-in HEK293 overexpressing TRPM3, stimulated with Pregnenolone sulfate (PS) 50 μM, activity ranges A, B, C. On the procedure:
In order to monitor the inhibition of the mouse TRPM3α2 (mTRPM3) ion channel by the compounds of the invention, a cellular system making use of an mTRPM3alpha2 or hTRPM3 overexpressing cell line (flip-in HEK293) was used. The TRPM3 channel was stimulated/opened with Pregnenolone sulfate (PS) (50 μM) which results in Ca^2+ influx.
For mTRPM3, the intracellular Ca^2+ was measured with a Calcium responsive dye, Fluor-4 AMV ester (Invitrogen). Cells were cultured until a confluence of 80-90%, washed with Versene (Invitrogen) and detached from the surface by a short incubation with 0.05% Trypsin (Invitrogen). The trypsination process was stopped by the addition of complete cell culture medium (DMEM, glutamax, 10% FCS, NEAA, Pen-Strep). Cells were collected and resuspended in Krebs buffer without Calcium at RT.
Prior the cell seeding (±2000 cells/well into a black, 384 well plate (Greiner)) the diluted compound was added in the assay plate, together with the PS dissolved in Krebs buffer containing Calcium. […] Directly after cell addition the plates were read on an Envision fluorescence reader (Perkin Elmer) by an Excitation of 485 nm and emission at 535 nm.
Channel inhibition was calculated compared to a non-PS stimulated control versus a condition stimulated with PS (50 μM) with vehicle. The ability of the compounds of the invention to inhibit this activity was determined as: Percentage inhibition=[1-((RFU determined for sample with test compound present−RFU determined for sample with positive control inhibitor) divided by (RFU determined in the presence of vehicle−RFU determined for sample with positive control inhibitor))]*100.
The activities of the Example compounds tested are depicted in the table below. The activity ranges A, B and C refer to IC50 values in the Fluo-4 AM assay as follows: “A”: IC50<1 μM; “B”: 1 μM≤IC50≤20 μM and “C”: IC50>20 μM

T1 sequence (J9SQF3 1-1709 isoform J9SQF3-12): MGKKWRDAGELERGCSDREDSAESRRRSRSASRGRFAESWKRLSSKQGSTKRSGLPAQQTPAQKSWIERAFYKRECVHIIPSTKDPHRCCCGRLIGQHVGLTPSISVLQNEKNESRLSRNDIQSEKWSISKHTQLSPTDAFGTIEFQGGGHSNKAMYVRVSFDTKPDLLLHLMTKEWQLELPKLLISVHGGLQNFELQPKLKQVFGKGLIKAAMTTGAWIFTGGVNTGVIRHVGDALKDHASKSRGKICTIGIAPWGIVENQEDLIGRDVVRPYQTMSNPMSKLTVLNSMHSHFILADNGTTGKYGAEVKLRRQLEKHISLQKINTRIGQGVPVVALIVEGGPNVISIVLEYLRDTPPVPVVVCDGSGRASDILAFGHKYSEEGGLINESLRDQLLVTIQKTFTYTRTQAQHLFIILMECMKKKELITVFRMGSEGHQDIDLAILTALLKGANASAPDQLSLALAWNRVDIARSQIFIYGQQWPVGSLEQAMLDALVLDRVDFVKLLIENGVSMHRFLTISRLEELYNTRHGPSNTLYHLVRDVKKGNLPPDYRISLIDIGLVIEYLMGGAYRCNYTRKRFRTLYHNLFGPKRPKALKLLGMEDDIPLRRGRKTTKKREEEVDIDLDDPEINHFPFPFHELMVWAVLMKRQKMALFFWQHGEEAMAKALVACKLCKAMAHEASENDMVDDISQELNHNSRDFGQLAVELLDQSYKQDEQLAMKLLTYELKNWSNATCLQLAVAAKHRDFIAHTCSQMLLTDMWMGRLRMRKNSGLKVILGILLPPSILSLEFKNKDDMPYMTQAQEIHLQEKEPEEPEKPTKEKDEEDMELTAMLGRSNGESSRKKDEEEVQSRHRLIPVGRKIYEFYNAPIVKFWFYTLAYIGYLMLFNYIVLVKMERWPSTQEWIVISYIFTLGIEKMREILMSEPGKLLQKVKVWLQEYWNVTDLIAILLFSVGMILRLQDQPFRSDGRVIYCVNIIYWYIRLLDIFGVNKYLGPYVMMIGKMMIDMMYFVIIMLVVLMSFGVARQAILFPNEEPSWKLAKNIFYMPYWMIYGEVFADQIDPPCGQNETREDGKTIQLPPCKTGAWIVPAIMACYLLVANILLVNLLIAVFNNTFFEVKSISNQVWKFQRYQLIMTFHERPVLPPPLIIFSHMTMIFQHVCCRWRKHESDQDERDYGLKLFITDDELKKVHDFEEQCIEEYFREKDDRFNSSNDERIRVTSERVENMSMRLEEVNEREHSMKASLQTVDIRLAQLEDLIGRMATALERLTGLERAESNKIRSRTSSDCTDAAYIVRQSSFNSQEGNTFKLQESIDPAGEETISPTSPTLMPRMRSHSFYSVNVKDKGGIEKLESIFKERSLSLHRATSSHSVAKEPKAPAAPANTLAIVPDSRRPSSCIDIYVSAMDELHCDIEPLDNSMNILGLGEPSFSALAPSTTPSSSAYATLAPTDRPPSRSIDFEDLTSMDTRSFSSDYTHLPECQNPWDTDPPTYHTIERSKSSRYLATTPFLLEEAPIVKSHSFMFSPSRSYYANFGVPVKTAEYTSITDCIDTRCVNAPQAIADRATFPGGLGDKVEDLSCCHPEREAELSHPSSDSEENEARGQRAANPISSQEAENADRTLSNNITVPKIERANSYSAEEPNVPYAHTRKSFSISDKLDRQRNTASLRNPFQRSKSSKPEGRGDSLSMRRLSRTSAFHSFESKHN

The compound `Cc1oc2cnc(OCc3ccccn3)cc2c1C(=O)NC(CO)C(N)=O` (single isomer, unassigned) [Cpd 014-En2, 3-hydroxy-2-({2-methyl-5-[(pyridin-2-yl)methoxy]furo[2,3-c]pyridin-3-yl}formamido)propanamide] displayed an IC50 of under 1000 nM.

`Cc1oc2cnc(OCc3ccccn3)cc2c1C(=O)NC1(C(N)=O)COC1` [Cpd 020, N-(3-carbamoyloxetan-3-yl)-2-methyl-5-[(pyridin-2-yl)methoxy]furo[2,3-c]pyridine-3-carboxamide] came in with an IC50 of 1000 to 20000 nM.

With `Cc1ncc(COc2cc3c(C(=O)N[C@@H](CO)C(N)=O)c(C)oc3cn2)s1` [Cpd 001, (2S)-3-hydroxy-2-({2-methyl-5-[(2-methyl-1,3-thiazol-5-yl)methoxy]furo[2,3-c]pyridin-3-yl}formamido)propanamide], the IC50 lay in the range of 1000 to 20000 nM.

`Cc1oc2cnc(OCc3ccccn3)cc2c1C(=O)NC1(C(N)=O)CCOCC1` [Cpd 024, N-(4-carbamoyloxan-4-yl)-2-methyl-5-[(pyridin-2-yl)methoxy]furo[2,3-c]pyridine-3-carboxamide]: the IC50 fell in the range of 1000 to 20000 nM.

For `Cc1ncsc1COc1cc2c(C(=O)NC3CNCC3(F)F)c(C)oc2cn1` (single isomer, unassigned) [Cpd 021-En2, N-(4,4-difluoropyrrolidin-3-yl)-2-methyl-5-[(4-methyl-1,3-thiazol-5-yl)methoxy]furo[2,3-c]pyridine-3-carboxamide], the IC50 was over 20000 nM.

As for `Cc1oc2cnc(OCc3ccccn3)cc2c1C(=O)NC(C)C(N)=O` (single isomer, unassigned) [Cpd 006 _ En2, 2-({2-methyl-5-[(pyridin-2-yl)methoxy]furo[2,3-c]pyridin-3-yl}formamido)propanamide], the IC50 lay within 1000 to 20000 nM.

On to `Cc1oc2cnc(OCc3ccccc3F)cc2c1C(=O)NC(C)(C)C(N)=O` [Cpd 007, 2-({5-[(2-fluorophenyl)methoxy]-2-methylfuro[2,3-c]pyridin-3-yl}formamido)-2-methylpropanamide], for which the IC50 was 1000 to 20000 nM.

Take `Cc1ncsc1COc1cc2c(C(=O)NC3(CO)COC3)c(C)oc2cn1` [Cpd 033, N-[3-(hydroxymethyl)oxetan-3-yl]-2-methyl-5-[(4-methyl-1,3-thiazol-5-yl)methoxy]furo[2,3-c]pyridine-3-carboxamide]: the IC50 lay in the range of 1000 to 20000 nM.

`Cc1oc2cnc(OCc3ccccc3F)cc2c1C(=O)N[C@H](C(N)=O)[C@@H](C)O` [Cpd 002, (2S,3R)-2-({5-[(2-fluorophenyl)methoxy]-2-methylfuro[2,3-c]pyridin-3-yl}formamido)-3-hydroxybutanamide] yielded an IC50 of under 1000 nM.

`Cc1ncsc1COc1cc2c(C(=O)NC(CO)C(N)=O)c(C)oc2cn1` (single isomer, unassigned) [Cpd 013-En1, 3-hydroxy-2-({2-methyl-5-[(4-methyl-1,3-thiazol-5-yl)methoxy]furo[2,3-c]pyridin-3-yl}formamido)propanamide] had a half-inhibitory concentration (IC50) of over 20000 nM.

Turning to `COc1ncccc1COc1cc2c(C(=O)NC3(CO)CC3)c(C)oc2cn1` [Cpd 032, N-[1-(hydroxymethyl)cyclopropyl]-5-[(2-methoxypyridin-3-yl)methoxy]-2-methylfuro[2,3-c]pyridine-3-carboxamide], the IC50 is over 20000 nM.

Take `Cc1oc2cnc(OCc3ccccn3)cc2c1C(=O)NC(C)(C)C(N)=O` [Cpd 012, 2-methyl-2-({2-methyl-5-[(pyridin-2-yl)methoxy]furo[2,3-c]pyridin-3-yl}formamido)propanamide]: the IC50 is 1000 to 20000 nM.

In turn, `Cc1oc2cnc(OCc3ccccc3F)cc2c1C(=O)NC(CO)C(N)=O` (single isomer, unassigned) [Cpd 008-En2, 2-({5-[(2-fluorophenyl)methoxy]-2-methylfuro[2,3-c]pyridin-3-yl}formamido)-3-hydroxypropanamide] came in with an IC50 of under 1000 nM.

Turning to `Cc1ncsc1COc1cc2c(C(=O)NC3(C(N)=O)COC3)c(C)oc2cn1` [Cpd 019, N-(3-carbamoyloxetan-3-yl)-2-methyl-5-[(4-methyl-1,3-thiazol-5-yl)methoxy]furo[2,3-c]pyridine-3-carboxamide], the 50% inhibitory concentration (IC50) was over 20000 nM.

Compound `Cc1oc2cnc(OCc3ccccn3)cc2c1C(=O)NC(C)C(N)=O` (single isomer, unassigned) [Cpd 006 _ En1, 2-({2-methyl-5-[(pyridin-2-yl)methoxy]furo[2,3-c]pyridin-3-yl}formamido)propanamide] registered an IC50 of 1000 to 20000 nM.

Consider `Cc1ncsc1CCOc1cc2c(C(=O)NC3CNCC3(F)F)c(C)oc2cn1` (centres unmarked) [Cpd 023-En1, N-(4,4-difluoropyrrolidin-3-yl)-2-methyl-5-[2-(4-methyl-1,3-thiazol-5-yl)ethoxy]furo[2,3-c]pyridine-3-carboxamide], for which the IC50 fell in the range of 1000 to 20000 nM.

On to `Cc1ncsc1COc1cc2c(C(=O)NC(C)(C)C(N)=O)c(C)oc2cn1` [Cpd 011, 2-methyl-2-({2-methyl-5-[(4-methyl-1,3-thiazol-5-yl)methoxy]furo[2,3-c]pyridin-3-yl}formamido)propanamide], for which the IC50 lay within 1000 to 20000 nM.

Compound `Cc1oc2cnc(OCc3ccccc3)cc2c1C(=O)NC1CNCC1(F)F` (single isomer, unassigned) [Cpd 015-En1, 5-(benzyloxy)-N-(4,4-difluoropyrrolidin-3-yl)-2-methylfuro[2,3-c]pyridine-3-carboxamide] came in with an IC50 of over 20000 nM.

Turning to `Cc1ncsc1COc1cc2c(C(=O)NC3(CO)CCOCC3)c(C)oc2cn1` [Cpd 035, N-[4-(hydroxymethyl)oxan-4-yl]-2-methyl-5-[(4-methyl-1,3-thiazol-5-yl)methoxy]furo[2,3-c]pyridine-3-carboxamide], the IC50 lay within 1000 to 20000 nM.

`Cc1oc2cnc(OCc3ccccc3)cc2c1C(=O)NC1CNCC1(F)F` (single isomer, unassigned) [Cpd 015-En2, 5-(benzyloxy)-N-(4,4-difluoropyrrolidin-3-yl)-2-methylfuro[2,3-c]pyridine-3-carboxamide] had an IC50 of under 1000 nM.

Regarding `Cc1oc2cnc(OCc3ccccn3)cc2c1C(=O)NC(CO)C(N)=O` (single isomer, unassigned) [Cpd 014-En1, 3-hydroxy-2-({2-methyl-5-[(pyridin-2-yl)methoxy]furo[2,3-c]pyridin-3-yl}formamido)propanamide], the IC50 lay in the range of 1000 to 20000 nM.

With `Cc1oc2cnc(OCc3ccccc3F)cc2c1C(=O)NC(CO)C(N)=O` (single isomer, unassigned) [Cpd 008-En1, 2-({5-[(2-fluorophenyl)methoxy]-2-methylfuro[2,3-c]pyridin-3-yl}formamido)-3-hydroxypropanamide], the IC50 fell in the range of 1000 to 20000 nM.

For `Cc1oc2cnc(OCc3ccccc3F)cc2c1C(=O)NC1CCN(CCO)C1=O` (single isomer, unassigned) [Cpd 017-En1, 5-[(2-fluorophenyl)methoxy]-N-[1-(2-hydroxyethyl)-2-oxopyrrolidin-3-yl]-2-methylfuro[2,3-c]pyridine-3-carboxamide], the IC50 fell in the range of 1000 to 20000 nM.

On to `Cc1ncsc1COc1cc2c(C(=O)NC(C)C(N)=O)c(C)oc2cn1` (single isomer, unassigned) [Cpd 005-En1, 2-({2-methyl-5-[(4-methyl-1,3-thiazol-5-yl)methoxy]furo[2,3-c]pyridin-3-yl}formamido)propanamide], for which the IC50 was in the range of 1000 to 20000 nM.

With `Cc1oc2cnc(OCc3ccccn3)cc2c1C(=O)NC1CCN(CCO)C1=O` (centres unmarked) [Cpd 027, N-[1-(2-hydroxyethyl)-2-oxopyrrolidin-3-yl]-2-methyl-5-[(pyridin-2-yl)methoxy]furo[2,3-c]pyridine-3-carboxamide], the IC50 was 1000 to 20000 nM.

The compound `Cc1oc2cnc(OCCc3ccccc3)cc2c1C(=O)NC1CNCC1(F)F` (centres unmarked) [Cpd 022-En1, N-(4,4-difluoropyrrolidin-3-yl)-2-methyl-5-(2-phenylethoxy)furo[2,3-c]pyridine-3-carboxamide] displayed an IC50 of 1000 to 20000 nM.

The compound `Cc1oc2cnc(OCc3cccnc3C(F)(F)F)cc2c1C(=O)N[C@@H]1CCNCC1(F)F` [Cpd 025, N-[(4R)-3,3-difluoropiperidin-4-yl]-2-methyl-5-{[2-(trifluoromethyl)pyridin-3-yl]methoxy}furo[2,3-c]pyridine-3-carboxamide] registered an IC50 of under 1000 nM.

As for `Cc1ncsc1COc1cc2c(C(=O)NC3(CO)CCC3)c(C)oc2cn1` [Cpd 028, N-[1-(hydroxymethyl)cyclobutyl]-2-methyl-5-[(4-methyl-1,3-thiazol-5-yl)methoxy]furo[2,3-c]pyridine-3-carboxamide], the IC50 lay within 1000 to 20000 nM.

With `Cc1ncsc1COc1cc2c(C(=O)NC(CO)C(N)=O)c(C)oc2cn1` (single isomer, unassigned) [Cpd 013-En2, 3-hydroxy-2-({2-methyl-5-[(4-methyl-1,3-thiazol-5-yl)methoxy]furo[2,3-c]pyridin-3-yl}formamido)propanamide], the IC50 is under 1000 nM.
